On this series, the source says:
Further, the glucose composition was adjusted to a final pH of 7 using 6 N sodium hydroxide.

Consider `O=C(O)/C=C/c1ccc(O)cc1` [Coumaric acid, trans-p-coumaric acid], for which the Solubility in water entry is given as “not dissolved”.

The values above are taken from US11053516B2, “Glucose composition, microbial fermentation raw material, and method of producing chemical product” (Toray Industries, Inc., priority 2016, dated 2021).
